Results: patent US20160130224A1, “Novel Pyrrole Derivatives” (priority 2013, published 2016)
Structures can show the parent of a compound that is named as a salt. Where two headings read alike, the source gives them in different places.

Columns and labels:
pneumolysin = pneumolysin (Streptococcus pneumoniae serotype 2, UniProt Q04IN8); assay: Inhibition of the haemolytic activity of pneumolysin (sheep erythrocytes); type: cell-based
Method: The basis of this assay is that when pneumolysin is added to red blood cells, it induces their lysis and leads to the release of haemoglobin. In the presence of an inhibitory compound, pneumolysin-induced lysis is abolished, the red blood cells pellet at the bottom of the microtitre plate well and the supernatant is clear. However, if the compound is not inhibitory, the red blood cells are lysed and haemoglobin is released into the supernatant.
Test compound solutions (typically at 5 mM in DMSO) were diluted 1:1 in 100% DMSO. The compounds were then two-fold serially diluted in 100% DMSO across 11 wells of 96-well round-bottomed microtitre plate. PBS was then added to all the wells to achieve a 1:10 dilution of the compound in PBS. Pneumolysin was then added at a concentration equal to its LD100. Plates were then incubated at 37° C. for 30-40 min. After the incubation period, an equal volume of 4% (v/v) sheep erythrocyte suspension was added to each well and the plates incubated again at 37° C., for at least 30 min. Controls with only erythrocytes in PBS (control for no lysis) or erythrocytes plus pneumolysin (control for lysis) were prepared following the same procedure. Following the incubation with the erythrocytes, the Absorbance at 595 nm of each well was measured and the data used to determine the IC50 for each test compound. The IC50 values were determined using non-linear regression curve fitting. For that, the Log of the concentrations of the test compound was plotted against the percentage inhibition, estimated from the A595 values, followed by fitting a Hill Slope to the data.

[1] = Solubility testing in PBS or 0.9% saline; type: physicochemical; conditions: for solubility: aqueous buffer, thermodynamic from solid, PBS
Method: Solubility studies were performed by charging a vial with 5-10 mg of compound followed by the 40 addition of PBS solution or 0.9% saline to achieve a concentration of 100 mg/ml. If solubility was not observed the solution was diluted to concentrations of 50 mg/ml, 25 mg/ml and 4 mg/ml consecutively until complete solubility was observed.

[2] = Chemical stability assessment in PBS at 37.5° C. (HPLC); type: physicochemical; conditions: buffer, pH 6.2, read-out: Chemical stability at pH 6.2-7.2 (t1/2) (converted)
Method: (§1) Stability studies were carried out by dissolving 1-2 mg of compound in DMSO (1 mL) followed by addition of 0.4 mL of the resulting solution to stirred PBS solution (9.6 mL) at 37.5° C. A sample (ca. 0.5 mL) was immediately taken for HPLC analysis. Further samples were then taken for analysis at various timepoints thereafter. Half-lives were determined from the decrease in concentration of compound with respect to time.
as §1, with “performed” for “carried out”, “ml)” for “mL)”, “ml” for “mL”, “PBS” for “PBS solution”, “(˜0.5 ml)” for “(ca. 0.5 mL)”, “time-points” for “timepoints”

[3] = Conversion of prodrug to parent active compound in mouse plasma (LC-MS/MS); type: in vitro ADME; conditions: 37° C., 10 μM start; for [ ] (μM) Prodrug remaining, t0 min.: 0 min; for [ ] (μM) Prodrug remaining, t15 min.: 15 min; for [ ] (μM) Prodrug remaining, t30 min.: 30 min; for [ ] (μM) Prodrug remaining, t60 min.: 60 min; for [ ] (μM) Prodrug remaining, t120 min.: 120 min
Method: (§2) The samples were then analysed by LC-MS/MS to obtain the amount of parent active compound appearing and prodrug derivative remaining over time.
(§3) Prodrug derivatives were assessed in the mouse, rat or human plasma stability assay at a concentration of 10 μM. Test compounds were diluted in DMSO to a final stock concentration of 10 mM. For the purpose of the assay, the stocks prepared were further diluted in DMSO to a concentration of 400 μM and 5 μL were added to 195 μL of mouse, rat or human plasma (pH 7.4) and then incubated at 37° C. The final concentration of DMSO in the plate was 2.5% (v/v). Reactions were terminated at 0, 15, 30, 60 and 120 min after incubation by adding 400 μl of acetonitrile containing 0.55 μM metoprolol and 1% (v/v) formic acid. The plate was then centrifuged at 3000 rpm, for 45 min, at 4° C. 80 μL of supernatant were transferred into a conical bottom 96 well glass coated plate. 40 μL of water were added prior to analysis for prodrug derivative and active species by LC-MS/MS. This assay was performed by a contract research organisation, Cyprotex Discovery Limited, UK, at the request of the inventors at Leicester.
(§4) (1) The parent active compound was quantified using a 6 point calibration curve prepared in deactivated mouse, rat or human plasma. (2) The percentage of prodrug compound remaining at each time point relative to 0 min sample was calculated from LC-MS/MS peak area ratios (compound peak area/internal standard peak area). This percentage was then used to determine the concentration of the prodrug compound at each time point in reference to the starting concentration (10 μM) at time 0 min.

[4] = Conversion of prodrug to parent active compound in rat plasma (LC-MS/MS); type: in vitro ADME; conditions: 37° C., 10 μM start; for [ ] (μM) Prodrug remaining, t0 min.: 0 min; for [ ] (μM) Prodrug remaining, t15 min.: 15 min; for [ ] (μM) Prodrug remaining, t30 min.: 30 min; for [ ] (μM) Prodrug remaining, t60 min.: 60 min; for [ ] (μM) Prodrug remaining, t120 min.: 120 min
Method: as §2, §3, §4

[5] = Conversion of prodrug to parent active compound in human plasma (LC-MS/MS); type: in vitro ADME; conditions: 37° C., 10 μM start; for [ ] (μM) Prodrug remaining, t0 min.: 0 min; for [ ] (μM) Prodrug remaining, t15 min.: 15 min; for [ ] (μM) Prodrug remaining, t30 min.: 30 min; for [ ] (μM) Prodrug remaining, t60 min.: 60 min
Method: as §2, §3, §4

pneumolysin, sequence (Q04IN8 whole entry): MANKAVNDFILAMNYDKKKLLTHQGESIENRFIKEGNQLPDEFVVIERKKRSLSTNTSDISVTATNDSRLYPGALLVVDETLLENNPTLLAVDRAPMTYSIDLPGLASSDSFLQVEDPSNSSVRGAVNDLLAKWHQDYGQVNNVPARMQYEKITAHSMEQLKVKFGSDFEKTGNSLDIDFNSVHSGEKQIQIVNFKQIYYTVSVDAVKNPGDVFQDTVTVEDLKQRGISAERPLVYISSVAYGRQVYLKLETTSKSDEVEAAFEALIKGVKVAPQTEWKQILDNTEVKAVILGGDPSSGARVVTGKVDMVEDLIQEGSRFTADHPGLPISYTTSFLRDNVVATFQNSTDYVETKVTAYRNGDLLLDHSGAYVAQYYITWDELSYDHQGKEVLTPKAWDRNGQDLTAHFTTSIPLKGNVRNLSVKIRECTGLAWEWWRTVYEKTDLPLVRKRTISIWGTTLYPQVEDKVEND

## CCOC(=O)c1c(O)c(O)c(C(=O)N(C)C)n1-c1ccc(OC)cc1 [UL1-012, Ethyl 5-(dimethylcarbamoyl)-3,4-dihydroxy-1-(4-methoxyphenyl)-1H-pyrrole-2-carboxylate]
pneumolysin; Table 1, pneumolysin at LD100, sheep erythrocytes, 37° C., read-out: IC50
  IC50: 200 nM
pneumolysin; Table 2, pneumolysin at LD100, sheep erythrocytes, 37° C., read-out: IC50
  IC50: 200 nM
[1]; result in words
  Solubility in 0.9% (w/v) saline, pH 6.5 or PBS pH 7.2: Not soluble
[2]
  half-life: 1.02 h

## COc1ccc(-n2c(C(=O)N(C)C)c(O)c(O)c2C(=O)N2CCN(C)CC2)cc1 [UL1-027, 3,4-Dihydroxy-1-(4-methoxyphenyl)-N,N-dimethyl-5-(4-methylpiperazine-1-carbonyl)-1H-pyrrole-2-carboxamide]
pneumolysin
  IC50: 200 nM

## COc1ccc(-n2c(C(=O)N(C)C)c(OC(=O)C(C)C)c(OC(=O)C(C)C)c2C(=O)N(C)C)cc1 [UL1-114, 2,5-Bis(dimethylcarbamoyl)-1-(4-methoxyphenyl)-1H-pyrrole-3,4-diyl bis(2-methylpropanoate)]
pneumolysin
  IC50: 19500 nM

## COc1ccc(-n2c(C(=O)N(C)C)c(OC(=O)C(C)C)c(OC(=O)C(C)C)c2C(=O)N2CCN(C)CC2)cc1.Cl [UL6-002, 2-(Dimethylcarbamoyl)-1-(4-methoxyphenyl)-5-(4-methylpiperazine-1-carbonyl)-1H-pyrrole-3,4-diyl bis(2-methylpropanoate) hydrochloride]
pneumolysin
  IC50: 2000 nM
[3]
  [ ] (μM) Prodrug remaining, t0 min.: 10.00 µM
  [ ] (μM) Prodrug remaining, t15 min.: 0.00 µM
  [ ] (μM) Prodrug remaining, t30 min.: 0.00 µM
  [ ] (μM) Prodrug remaining, t60 min.: 0.02 µM
  [ ] (μM) Prodrug remaining, t120 min.: 0.00 µM

## COc1ccc(-n2c(C(=O)N(C)C)c(OC(=O)C(C)(C)C)c(OC(=O)C(C)(C)C)c2C(=O)N2CCN(C)CC2)cc1 [UL6-004, 2-(Dimethylcarbamoyl)-1-(4-methoxyphenyl)-5-(4-methylpiperazine-1-carbonyl)-1H-pyrrole-3,4-diyl bis(2,2-dimethylpropanoate) hydrochloride]
pneumolysin
  IC50: 1600 nM
[3]
  [ ] (μM) Prodrug remaining, t0 min.: 10.00 µM
  [ ] (μM) Prodrug remaining, t15 min.: 10.00 µM
  [ ] (μM) Prodrug remaining, t30 min.: 9.88 µM
  [ ] (μM) Prodrug remaining, t60 min.: 9.80 µM
  [ ] (μM) Prodrug remaining, t120 min.: 9.63 µM

## COc1ccc(-n2c(C(=O)N(C)C)c(OC(=O)c3cccc(COP(=O)(O)O)c3)c(OC(=O)c3cccc(COP(=O)(O)O)c3)c2C(=O)N(C)C)cc1.[Na+].[Na+] [UL6-006, Sodium ((((2,5-bis(dimethylcarbamoyl)-1-(4-methoxyphenyl)-1H-pyrrole-3,4-diyl)bis(oxy))bis(carbonyl))bis(3,1-phenylene))bis(methylene) bis(hydrogenphosphate)]
pneumolysin
  IC50: 300 nM
[1]; pH 5-6
  solubility: ≥ 50 mg/mL
[2]
  half-life: 29.5 h
[3]
  [ ] (μM) Prodrug remaining, t0 min.: 10.00 µM
  [ ] (μM) Prodrug remaining, t15 min.: 2.05 µM
  [ ] (μM) Prodrug remaining, t30 min.: 0.79 µM
  [ ] (μM) Prodrug remaining, t60 min.: 0.10 µM
  [ ] (μM) Prodrug remaining, t120 min.: 0.04 µM
[4]
  [ ] (μM) Prodrug remaining, t0 min.: 10.00 µM
  [ ] (μM) Prodrug remaining, t15 min.: 8.90 µM
  [ ] (μM) Prodrug remaining, t30 min.: 1.17 µM
  [ ] (μM) Prodrug remaining, t60 min.: 0.21 µM
  [ ] (μM) Prodrug remaining, t120 min.: 0.07 µM
[5]
  [ ] (μM) Prodrug remaining, t0 min.: 10.00 µM
  [ ] (μM) Prodrug remaining, t15 min.: 2.15 µM
  [ ] (μM) Prodrug remaining, t30 min.: 0.05 µM
  [ ] (μM) Prodrug remaining, t60 min.: 0.01 µM

## CCOC(=O)c1c(OC(=O)c2ccc(COP(=O)([O-])O)cc2)c(OC(=O)c2ccc(COP(=O)([O-])O)cc2)c(C(=O)N(C)C)n1-c1ccc(OC)cc1.[Na+].[Na+] [UL6-008, Sodium ((((2-(dimethylcarbamoyl)-5-(ethoxycarbonyl)-1-(4-methoxyphenyl)-1H-pyrrole-3,4-diyl)bis(oxy))bis(carbonyl))bis(4,1-phenylene))bis(methylene) bis(hydrogenphosphate)]
pneumolysin
  IC50: 1900 nM
[1]; pH 6
  solubility: ≥ 100 mg/mL
[2]
  half-life: 144 h
[3]
  [ ] (μM) Prodrug remaining, t0 min.: 10.00 µM
  [ ] (μM) Prodrug remaining, t15 min.: 4.53 µM
  [ ] (μM) Prodrug remaining, t30 min.: 1.70 µM
  [ ] (μM) Prodrug remaining, t60 min.: 0.47 µM
  [ ] (μM) Prodrug remaining, t120 min.: 0.09 µM
[4]
  [ ] (μM) Prodrug remaining, t0 min.: 10.00 µM
  [ ] (μM) Prodrug remaining, t15 min.: 2.90 µM
  [ ] (μM) Prodrug remaining, t30 min.: 1.00 µM
  [ ] (μM) Prodrug remaining, t60 min.: 0.21 µM
  [ ] (μM) Prodrug remaining, t120 min.: 0.07 µM
[5]
  [ ] (μM) Prodrug remaining, t0 min.: 10.00 µM
  [ ] (μM) Prodrug remaining, t15 min.: 4.89 µM
  [ ] (μM) Prodrug remaining, t30 min.: 5.10 µM
  [ ] (μM) Prodrug remaining, t60 min.: 6.06 µM
[5]; 120 min
  [ ] (μM) Prodrug remaining, t120 min.: 4.52 µM
